Results taken from patent US10421755B2, “Salts of aza-bicyclic di-aryl ethers and methods to make them or their precursors” (Novartis AG, priority 2011, dated 2019).
Several values for one entry are separate records, joined by “and”; a condition that tells them apart may be missing. Identical values can stand only once.

Columns and labels:
[1] = Hygroscopicity (moisture gain at relative humidity); type: physicochemical; set-up: Hygroscopy @ 85% RH: unit not given here
[2] = Oral bioavailability in dogs; type: in vivo, beagle dogs; details: 1.4 μmol/kg p.o.
Method: Assay: The compound was given to N=3 male beagle dogs in tritiated form:
The concentration of the compound in blood was determined by LC-RID. The procedure involved the addition of 5 μg of the compound as internal standard (200 μL of solution containing 25 μg/mL of the compound) to 1 mL of blood. After further addition of 1 mL of water, 0.1 mL of buffer pH 9 and 4 mL of tert-butylmethylether, the samples were shaken for 30 min and centrifuged (4000 g for 10 min at 22° C.). The organic phase was transferred into a tube and evaporated in a Speedvac. The residue was reconstituted in 250 μL of mobile phase-water (80:20 v/v) followed by 75 μL of n-hexane and transferred into an autosampler vial. After centrifugation (13,000 g for 2 min at 22° C.), the hexane layer was pipetted off and discarded, 200 μL of the remainder was injected onto an RP18 column (Waters XTerra, 5 μm, 3.9×150 mm at 40° C.) to separate the compound from potential metabolites and endogenous compounds. The mobile phase of ammonium acetate (10 mM: 0.1% v/v TFA-acetonitrile, 58:42 v/v) was used at a flow rate of 1.0 mL/min. The effluent was monitored by a UV-detector set at 261 nm. The peak corresponding to the unchanged compound was collected in a polyethylene vial by a fraction collector (SuperFrac, Pharmacia LKB) and analyzed for radioactivity. The concentration of the compound in each sample was calculated from the ratio of the amount of radioactivity in the eluate fraction to the area of the ultraviolet absorbance of the non-radiolabeled the compound, that was used as the internal standard.

[3] = Pharmacokinetics in rats after oral administration; type: in vivo, Wistar rats; details: 10 mg/kg oral
Method: If a salt forming agent is used (e.g. fumarate), a corresponding higher amount of the salt will be used to achieve the intended dosing.
Both compounds were dissolved in Klucel™ (0.5% in water) and were orally administered by gavage (5 ml/kg) to conscious rats (n=8, cross-over design).
K3-EDTA blood (˜0.2 ml) was collected by puncture of a sublingual vein under light isoflurane anesthesia at the following time points: 0.25, 0.5, 1, 2, 3, 4, 6, 8, 24 h post dose. Immediately after sampling, blood samples were put on ice and were processed to plasma by centrifugation at 4° C. within 15 min after sampling (1000 g, 10 min, 4° C.) to obtain ˜100 μl plasma/sample. All plasma samples were stored at −80° C. until analysis. Since the PK study was performed in a cross-over design, a recovery period of approximately 2 weeks took place before the next treatment/blood sampling was performed.
The determination of compounds in plasma was done by LC-MS/MS using electrospray ionization.

[4] = Stability in buffer solutions and in solid state; type: physicochemical
[5] = Stability of the active ingredient in tablets; type: physicochemical; details: tablets where only certain lubricants are used
Method: It is particularly important that the active ingredient remains chemically stable over a potential long shelf time. When assessing storage stability, relative amounts of individual degradation products compared to the total amount of active ingredient are taken into consideration. Individual degradation products should all be present in low relative amounts to ensure that no single product can reach a non-acceptable level, e.g. when the active ingredient is administered in high doses.

[6] = Loss on drying / initial water content; type: physicochemical; set-up: Initial water content: unit not given here
[7] = Decomposition temperature; type: physicochemical; set-up: unit not given here; details: comparison table, Example 7
[8] = Known multiple solid forms; type: physicochemical; details: comparison table, Example 7
[9] = Particle size measurements by Fraunhofer light diffraction; type: physicochemical; details: N=8
Method: Mean particle sizes, X90 and X10 are typically measured by Fraunhofer light diffraction.
To about 0.5 g of test substance add some drops of the dispersing aid (1% Octastat 5000 (Octel Corp.) in white spirit (Sangajol, Schweizerhall Chemie)). Mix intensively on a vortex mixer, in order to wet the substance thoroughly and to form a smooth and homogeneous paste. Dilute the paste with white spirit to a final volume of 3-6 ml and mix the dispersion again. Determine the cumulative volume distribution using a laser diffraction instrument, e.g. determine the particle sizes at the undersize values of 10%, 50% and 90% (x10, x50, x90). Measuring device: Sympatec HELOS (Sympatec GmbH; focal length: 500 mm, optical concentration≥5%, duration of measurement: 40 sec).
Dispersion device: Suspension cell (QUIXEL, Sympatec GmbH).

[10] = male Wistar rats (n=8), mean (text: ± SD)
[11] = male Wistar rats, individual rats 01-08, listed as mono-fumarate, 10 mg/kg

Question: With Cc1ccc(-c2ccc(O[C@H]3CN4CCC3CC4)cn2)cc1.O=C(O)/C=C/C(=O)O [Compound B, (R)-3-(6-(4-methylphenyl)-pyridin-3-yloxy)-1-aza-bicyclo[2.2.2]octane hydrogenfumarate] as the compound, how does the “hygroscopicity (in words)” value [1] read?
Answer: Its value is “slightly hygroscopic”.

Question: What about the moisture gain ([1]; at 85% relative humidity (RH)) of the same compound?
Answer: The moisture gain was 0.5%.

Question: What about the “Hygroscopy @ 85% RH” value ([1]; comparison table, Example 7) of the same compound?
Answer: The value was 0.5.

Question: And the “Plasma (pmoles/ml ± SD)” value ([2]; 0.25 hour)?
Answer: The value was 14.7 ± 1.1 pmol/mL.

Question: And the “Plasma (pmoles/ml ± SD)” value ([2]; 0.5 hour)?
Answer: Its value is 49.4 ± 21.9 pmol/mL.

Question: And the “Plasma (pmoles/ml ± SD)” value ([2]; 1 hour)?
Answer: Its value is 67.6 ± 22.6 pmol/mL.

Question: What about the “Plasma (pmoles/ml ± SD)” value ([2]; 2 hour) of the same compound?
Answer: The value was 75.2 ± 36.8 pmol/mL.

Question: And the “Plasma (pmoles/ml ± SD)” value ([2]; 4 hour)?
Answer: Its value is 27.5 ± 13.3 pmol/mL.

Question: And the “Plasma (pmoles/ml ± SD)” value ([2]; 8 hour)?
Answer: The value was 8.1 ± 3.0 pmol/mL.

Question: What about the “Plasma (pmoles/ml ± SD)” value ([2]; 24 hour) of the same compound?
Answer: The value was 0.8 ± 0.7 pmol/mL.

Question: What about the “Concentration of free form in plasma, Mean All” value ([3]; male Wistar rats (n=8), 0.25 h, mean) of the same compound?
Answer: The value was 149 ng/mL.

Question: What about the “Concentration of free form in plasma, Mean All” value ([3]; male Wistar rats (n=8), 0.5 h, mean) of the same compound?
Answer: The value was 132 ng/mL.

Question: What about the “Concentration of free form in plasma, Mean All” value ([3]; male Wistar rats (n=8), 1 h, mean) of the same compound?
Answer: Its value is 77.4 ng/mL.

Question: And the “Concentration of free form in plasma, Mean All” value ([3]; male Wistar rats (n=8), 2 h, mean)?
Answer: Its value is 38.9 ng/mL.

Question: And the “Concentration of free form in plasma, Mean All” value ([3]; male Wistar rats (n=8), 3 h, mean)?
Answer: The value was 19.5 ng/mL.

Question: What about the “Concentration of free form in plasma, Mean All” value ([3]; male Wistar rats (n=8), 4 h, mean) of the same compound?
Answer: Its value is 10.6 ng/mL.

Question: And the “Concentration of free form in plasma, Mean All” value ([3]; male Wistar rats (n=8), 6 h, mean)?
Answer: The value was 5.10 ng/mL.

Question: And the “Concentration of free form in plasma, Mean All” value ([3]; male Wistar rats (n=8), 8 h, mean)?
Answer: Its value is 2.54 ng/mL.

Question: What about the “Concentration of free form in plasma, Mean All” value ([3]; male Wistar rats (n=8), 24 h, mean) of the same compound?
Answer: Its value is 0.320 ng/mL.

Question: And the “Tmax (h), all rats” value ([3]; male Wistar rats (n=8), Median [range], listed as mono-fumarate)?
Answer: Its value is 0.25 [0.25-0.50]^a h.

Question: And the “Cmax/Dose (ng/mL)/(mg/kg), Mean All” value ([3]; male Wistar rats (n=8), mean)?
Answer: The value was 16.5 (ng/mL)/(mg/kg).

Question: What about the “AUClast (h · ng/mL), Mean All” value [3, 10] of the same compound?
Answer: The value was 249 ± 42 ng·h/mL.

Question: And the “Cmax (ng/mL), Mean All” value [3, 10]?
Answer: Its value is 161 ± 53 ng/mL.

Question: And the “Concentration of free form in plasma” value ([3]; male Wistar rats, 0.25 h, individual rats 01-08)?
Answer: Its value is 89.0 ng/mL.

Question: What about the “Concentration of free form in plasma” value ([3]; male Wistar rats, 0.25 h, individual rats 01-08, listed as mono-fumarate, 10 mg/kg) of the same compound?
Answer: The value was 167 ng/mL and 162 ng/mL and 77.8 ng/mL and 242 ng/mL and 204 ng/mL and 93.3 ng/mL and 153 ng/mL.

Question: What about the “Concentration of free form in plasma” value ([3]; male Wistar rats, 0.5 h, individual rats 01-08) of the same compound?
Answer: The value was 130 ng/mL.

Question: And the “Concentration of free form in plasma” value ([3]; male Wistar rats, 0.5 h, individual rats 01-08, listed as mono-fumarate, 10 mg/kg)?
Answer: Its value is 104 ng/mL and 78.4 ng/mL and 99.7 ng/mL and 143 ng/mL and 179 ng/mL and 184 ng/mL and 138 ng/mL.

Question: What about the “Concentration of free form in plasma” value ([3]; male Wistar rats, 1 h, individual rats 01-08, listed as mono-fumarate, 10 mg/kg) of the same compound?
Answer: Its value is 67.1 ng/mL and 88.8 ng/mL and 41.3 ng/mL and 62.8 ng/mL and 83.2 ng/mL and 80.8 ng/mL and 101 ng/mL and 94.2 ng/mL.

Question: What about the “Concentration of free form in plasma” value ([3]; male Wistar rats, 2 h, individual rats 01-08, listed as mono-fumarate, 10 mg/kg) of the same compound?
Answer: The value was 27.4 ng/mL and 39.2 ng/mL and 37.8 ng/mL and 24.6 ng/mL and 47.1 ng/mL and 37.6 ng/mL and 54.8 ng/mL and 42.6 ng/mL.

Question: What about the “Concentration of free form in plasma” value ([3]; male Wistar rats, 3 h, individual rats 01-08, listed as mono-fumarate, 10 mg/kg) of the same compound?
Answer: Its value is 12.4 ng/mL and 17.7 ng/mL and 25.3 ng/mL and 11.7 ng/mL and 19.6 ng/mL and 20.6 ng/mL and 25.1 ng/mL and 23.2 ng/mL.

Question: What about the “Concentration of free form in plasma” value ([3]; male Wistar rats, 4 h, individual rats 01-08, listed as mono-fumarate, 10 mg/kg) of the same compound?
Answer: The value was 9.06 ng/mL and 10.6 ng/mL and 13.3 ng/mL and 5.90 ng/mL and 9.71 ng/mL and 11.8 ng/mL and 13.0 ng/mL and 11.1 ng/mL.

Question: What about the “Concentration of free form in plasma” value ([3]; male Wistar rats, 6 h, individual rats 01-08, listed as mono-fumarate, 10 mg/kg) of the same compound?
Answer: Its value is 7.49 ng/mL and 3.47 ng/mL and 7.63 ng/mL and 5.79 ng/mL and 4.29 ng/mL and 4.24 ng/mL and 4.05 ng/mL and 3.87 ng/mL.

Question: And the “Concentration of free form in plasma” value ([3]; male Wistar rats, 8 h, individual rats 01-08, listed as mono-fumarate, 10 mg/kg)?
Answer: The value was 2.91 ng/mL and 2.35 ng/mL and 3.62 ng/mL and 2.62 ng/mL and 2.46 ng/mL and 1.94 ng/mL and 2.38 ng/mL and 2.07 ng/mL.

Question: What about the “AUClast” value [3, 11] of the same compound?
Answer: Its value is 202 ng·h/mL and 259 ng·h/mL and 212 ng·h/mL and 188 ng·h/mL and 269 ng·h/mL and 292 ng·h/mL and 298 ng·h/mL and 272 ng·h/mL.

Question: What about the “Cmax” value [3, 11] of the same compound?
Answer: Its value is 167 ng/mL and 162 ng/mL and 78.4 ng/mL and 99.7 ng/mL and 242 ng/mL and 204 ng/mL and 184 ng/mL and 153 ng/mL.

Question: And the “Cmax/Dose (ng/mL)/(mg/kg)” value [3, 11]?
Answer: Its value is 17.2 (ng/mL)/(mg/kg) and 16.4 (ng/mL)/(mg/kg) and 7.88 (ng/mL)/(mg/kg) and 10.2 (ng/mL)/(mg/kg) and 25.2 (ng/mL)/(mg/kg) and 21.1 (ng/mL)/(mg/kg) and 18.3 (ng/mL)/(mg/kg) and 15.7 (ng/mL)/(mg/kg).

Question: What about the “Tlast” value [3, 11] of the same compound?
Answer: Its value is 8.0 h (2×) and 24.0 h (6×).

Question: And the “Tmax” value [3, 11]?
Answer: Its value is 0.25 h (5×) and 0.50 h (3×).

Question: What about the “T½” value [3, 11] of the same compound?
Answer: Its value is 2.44 h and 5.02 h and 3.62 h and 3.71 h and 2.02 h and 3.97 h and 5.51 h.

Question: What about the “T½ (h), Mean All” value ([3]; male Wistar rats, mean) of the same compound?
Answer: Its value is 3.76 h.

Question: What about the solid-state stability [4] of the same compound?
Answer: The solid-state stability was “good”.

Question: What about the “stability in buffer solutions” value ([4]; many buffer solutions, various pH values) of the same compound?
Answer: The value was “good stability”.

Question: What about the stability in tablets [5] of the same compound?
Answer: The stability in tablets was “very stable”.

Question: What about the “Loss on drying (LOD) of a sample” value [6] of the same compound?
Answer: The value was under 0.03%.

Question: What about the Initial water content ([6]; comparison table, Example 7) of the same compound?
Answer: The Initial water content was under 0.5.

Question: What about the Decomposition temperature [7] of the same compound?
Answer: Its Decomposition temperature is 207.

Question: What about the “Known Multiple forms” value [8] of the same compound?
Answer: Its value is “No”.

Question: What about the “particle size x10” value [9] of the same compound?
Answer: The value was 5.6±0.5 μm.

Question: And the “particle size x50 (mean particle size)” value [9]?
Answer: Its value is 26.8±1.3 μm.

Question: What about the “particle size x90” value [9] of the same compound?
Answer: The value was 77.3±3.3 μm.
